The values below are quoted from earlier work in patent US20200397720A1, “METHOD AND FORMULATION FOR TREATMENT OF WOUNDS BY NEW TISSUE REGENERATION WITH REDUCED TRAUMA AND SCAR TISSUE FORMATION” (priority 2019, published 2020).

This series concerns inflammatory cytokines, including IL-6 and TNF-α. Conditions: high fat diet-induced atherosclerosis in rabbits.

With `CC1=C(/C=C/C(C)=C/C=C/C(C)=C/C(=O)O)C(C)(C)CCC1` [ATRA, all-trans retinoic acid], the “effect on inflammatory cytokines, including IL-6 and TNF-α” value was “lowering inflammatory cytokines”.
